Measurements as given in PubChem BioAssay AID1845198 (Molecular Pharmacology Branch, DTP, NCI, 2023).
Where “and” joins values, the source holds several entries; their conditions need not be identical. Equal values may be shown once.

Tested on: 425362-245-T-J1 tumor spheroids, viability % test/control
Assay: Anticancer human tumor 425362-245-T-J1 patient-derived melanoma cell line growth inhibition
Details: spheroids with HUVEC and MSC; for viability, T/C: stronger effect = lower value
Excerpt: Multicellular complex tumor spheroid response to DNA repair inhibitors in combination with DNA-damaging drugs
This study explores the anticancer activities of DNA-damaging drugs and inhibitors of DNA damage repair, both as single agents and in combinations. Complex tumor spheroids comprised of malignant cells, endothelial cells and mesenchymal stem cells served as an in vitro model for human solid tumors. This model system incorporates physiologically relevant features and patient-derived or established malignant cell lines with clinically relevant genetic alterations from many tumor types. Twenty-six patient-derived or established malignant cell lines were evaluated representing sarcoma, melanoma, small cell lung cancer (SCLC), non-small cell lung cancer (NSCLC), as well as bladder, ovarian and pancreatic cancers. The concentration ranges selected for each drug and investigational agent were based upon clinically achievable concentrations if the clinical Cmax of the agent was known.
Compounds. The drugs and compounds olaparib (NSC753686), talazoparib (NSC767125), berzosertib (NSC777718), elimusertib (NSC800525), nedisertib (NSC802822), VX-984 (NSC792969), AZD-1390 (NSC803789), temozolomide (NSC362856), topotecan (NSC609699), trabectedin (NSC813783), staurosporine (NSC755774), and gemcitabine (NSC613327) were obtained from the National Cancer Institute (NCI) Developmental Therapeutics Program Chemical Repository. The FDA-approved anticancer drug set is available from the Developmental Therapeutics Program at https://dtp.cancer.gov/organization/dscb/obtaining/available_plates.htm. […] The stock solutions were prepared in dimethyl sulfoxide (DMSO, Sigma-Aldrich, St. Louis, MO, cat. D2650) at 400-fold the tested concentration and stored at -70 degrees C. Prior to their use, the stock solutions were diluted in fresh medium and the final DMSO concentration in the assay was 0.25% (v/v). All drugs and investigational agents were tested over a range starting from a high concentration at or near the clinical Cmax and decreasing in half-log increments. If the clinical Cmax for an agent had not been determined, the highest concentration tested was 10 microM.
Cell Lines. The patient-derived cancer cell (PDC) lines: 156681-154-R-J1-PDC, 283228-195-R-J1-PDC, 287954-098-R-J1-PDC, 292921-168-R-J2-PDC, 349418-098-R-PDC, 425362-245-T-J1-PDC, 556581-035-R-J1-PDC, and BL0293-F563-PDC were received from the NCI Patient-Derived Models Repository (PDMR, https://pdmr.cancer.gov). The established cell lines HS-SY-2 (RRID:CVCL_8719), MPNST, and SYO-1 (RRID:CVCL_7146) were obtained from the Sloan Kettering Institute. The alveolar soft parts sarcoma cell line ASPS-1 (RRID:CVCL_S738) was established at the NCI and grown from internal seed stocks. The following established cell lines were purchased from the American Type Culture Collection (ATCC, Manassas, VA): G-401 (ATCC, cat. CRL-1441, RRID:CVCL_0270), SW982 (ATCC, cat. HTB-93, RRID:CVCL_1734), VA-ES-BJ (ATCC, cat. CRL-2138, RRID:CVCL_1785), NCI-H719 (ATCC, cat. CRL-5837, RRID:CVCL_1582), NCI-H196 (ATCC, cat. CRL-5823, RRID:CVCL_1509), NCI-H841 (ATCC, cat. CRL-5845, RRID:CVCL_1595), NCI-H1618 (ATCC, cat. CRL-5879, RRID:CVCL_1480), NCI-H1876 (ATCC, cat. CRL-5902, RRID:CVCL_1503), DMS 114 (ATCC, cat. CRL-2066; RRID:CVCL_1174), NCI-H211 (ATCC, cat. CRL-5824; RRID:CVCL_1529), and SW 1271 (ATCC, cat. CRL-2177, RRID:CVCL_1716). The small cell lung cancer cell line COR-L88 was purchased from Sigma-Aldrich (cat. 92031917-1VL, RRID:CVCL_1141). The non-small cell lung cancer cell lines NCI-H226 (RRID:CVCL_1544) and NCI-H322M (RRID:CVCL_1557) were established at the NCI and grown from internal seed stocks. Pooled donor human umbilical vein endothelial cells (HUVEC, Lonza, cat. CC-2519) and human mesenchymal stem cells (hMSC, Lonza, cat. PT-2501) were purchased from Lonza (Walkersville, MD).
Cell Culture. All cells were maintained in an incubator at 37 degrees C and 5% CO2 with 95% humidity. […]
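Note: spheroids exposed to agents for 7 days.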

SMILES	viability, T/C (compound 0.0316 µM)	viability, T/C (compound 0.1 µM)	viability, T/C (compound 0.316 µM)	viability, T/C (compound 1 µM)	viability, T/C (compound 3.16 µM)	viability, T/C (compound 10 µM)	IC50 (curve of compound)	viability, T/C (compound 0.00949 µM)	viability, T/C (compound 0.03 µM)	viability, T/C (compound 0.0949 µM)	viability, T/C (compound 0.3 µM)	viability, T/C (compound 0.949 µM)	viability, T/C (compound 3 µM)	viability, T/C (compound 31.6 µM)	viability, T/C (compound 100 µM)	IC50 (compound alone, run of 10/17/2019) [nM]	viability, T/C (compound 9.49 µM)	viability, T/C (compound 30 µM)
COc1ccc([C@@H](O)c2cc(-c3ncnc4cc(N5CCOCC5)ccc34)c(F)cc2Cl)nn1	101% and 96.8% and 105%	92.6% and 110% and 104%	90.7% and 98.8% and 92.3%	65.5% and 76.1% and 72.6%	38% and 44.5% and 42.9%	18.8% and 22.8% and 19.7%	1930 nM and 2520 nM and 2400 nM	–	–	–	–	–	–	–	–	–	–	–
Cc1cc(C)c(CNC(=O)c2cc(-c3ccc(CN4CCOCC4)cc3)cc3c2cnn3C2CCCC2)c(=O)[nH]1	101% and 97.2% and 92.7%	93% and 116% and 102%	103% and 97.9% and 84.5%	100% and 80.2% and 86.5%	81.8% and 49.8% and 46.3%	42.6% and 15.2% and 14.8%	8060 nM and 3010 nM and 2860 nM	–	–	–	–	–	–	–	–	–	–	–
Cc1sc2c(c1C)C(c1ccc(Cl)cc1)=NC(CC(=O)Nc1ccc(O)cc1)c1nnc(C)n1-2 (stereo unspecified)	–	–	–	–	–	–	95.3 nM and 85.6 nM and 80.2 nM	97.8% and 84.1% and 108%	91.2% and 76% and 93%	49.5% and 47.9% and 42.8%	12.8% and 12% and 8.15%	5.36% and 3.14% and 2.44%	2.57% and 1.92% and 2.11%	–	–	–	–	–
Cn1ncnc1[C@H]1c2n[nH]c(=O)c3cc(F)cc(c23)N[C@@H]1c1ccc(F)cc1	–	–	–	–	–	–	29 nM and 22 nM and 14.1 nM	74.9% and 69% and 59.1%	46.1% and 42.9% and 33.5%	35.3% and 25.2% and 18.1%	16.1% and 14.1% and 15.6%	10.1% and 9.44% and 9.39%	3.22% and 2.7% and 1.7%	–	–	–	–	–
Cn1nnc2c(C(N)=O)ncn2c1=O	–	–	–	–	106% [middle of 10 runs]	–	–	–	–	–	–	–	–	108% [middle of 10 runs]	92.1% [middle of 10 runs]	> 100000	–	–
O=C(c1cc(Cc2n[nH]c(=O)c3ccccc23)ccc1F)N1CCN(C(=O)C2CC2)CC1	–	–	–	–	–	–	2140 nM and 3840 nM and 2500 nM	–	–	92.6% and 110% and 97.2%	82.7% and 97.3% and 92.5%	73.7% and 88.9% and 75.7%	41.4% and 60.6% and 45.6%	–	–	–	12% and 18.8% and 18.9%	7.13% and 11.4% and 9.39%
[2H]c1nc(C)nc([2H])c1-c1cc(NC[C@@H](C)c2cccc3c(C(=O)NC)ccnc23)ncn1	103% and 96.9% and 88.3%	97.1% and 90.8% and 81.5%	112% and 98.8% and 69.9%	108% and 104% and 63.5%	110% and 96.8% and 52.8%	103% and 96.5% and 25.2%	> 10000 nM and 2820 nM	–	–	–	–	–	–	–	–	–	–	–
